The text below walks through data of US7538132B2, “Isoxazolo derivatives” (Hoffman-La Roche Inc., priority 2005, dated 2009).

Each structure is given as a SMILES string.

This experiment deals with T1, GABA A receptor α5β3γ2 (hα5) (Homo sapiens, UniProt P18507+P31644).
T1 construct: expressed in transfected cells; host or cells: HEK293 (transiently transfected; membranes prepared from cell pellets)
As to the kind of experiment: [3H]flumazenil competition binding assay, human GABA A α5β3γ2 receptors. The conditions noted are these: displacement of [3H]flumazenil (0.5 nM) from membranes of HEK293 cells expressing human α5β3γ2; 1 hour at 4° C.; means of two determinations. How it is done:
The affinity of compounds at GABA A receptor subtypes was measured by competition for [3H]flumazenil (85 Ci/mmol; Roche) binding to HEK293 cells expressing rat (stably transfected) or human (transiently transfected) receptors of composition α1β3γ2, α2⊖3γ2, α3β3γ2 and α5β3γ2.
Cell pellets were suspended in Krebs-tris buffer (4.8 mM KCl, 1.2 mM CaCl2, 1.2 mM MgCl2, 120 mM NaCl, 15 mM Tris; pH 7.5; binding assay buffer), homogenized by polytron for ca. 20 sec on ice and centrifuged for 60 min at 4° C. (50000 g; Sorvall, rotor: SM24=20000 rpm). The cell pellets were resuspended in Krebs-tris buffer and homogenized by polytron for ca. 15 sec on ice. Protein was measured (Bradford method, Bio-Rad) and aliquots of 1 mL were prepared and stored at −80° C.
Assays were incubated to equilibrium for 1 hour at 4° C. and harvested onto GF/C uni-filters (Packard) by filtration using a Packard harvester and washing with ice-cold wash buffer (50 mM Tris; pH 7.5). After drying, filter-retained radioactivity was detected by liquid scintillation counting. Ki values were calculated using Excel-Fit (Microsoft) and are the means of two determinations.
For orientation: Displacement assays read how much labelled ligand stays bound in the presence of the test substance.

The Ki is the equilibrium dissociation constant of an inhibitor or competing ligand from its target. High values mean weaker binding, low ones tighter binding. Turning to `Cc1onc(-c2ccc(Cl)cc2)c1C(=O)c1c[nH]c(C(=O)NCC2CC2)c1` [Example 156, 4-[3-(4-Chloro-phenyl)-5-methyl-isoxazole-4-carbonyl]-1H-pyrrole-2-carboxylic acid cyclopropylmethyl-amide], the Ki is 0.00385 µM. This lies in the single-digit nanomolar range.
